# Reference: patent publication US6737383B1, “Herbicidal oxadiazolidines” (priority 1999, dated 2004)
# Legend:
# wheat = assay: Test B pre/postemergence wheat; format: in vivo, Triticum aestivum
# How it was run: (§1)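 Response is a visual 0-to-10 score relative to untreated plants, where 0 means no effect and 10 means complete control, taken twelve to sixteen days after application. Treatments went onto soil at planting and onto foliage of 1- to 4-leaf plants, using a surfactant-containing non-phytotoxic solvent.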
# velvetleaf = assay: Test B pre/postemergence velvetleaf; format: in vivo, Abutilon theophrasti
# How it was run: as §1
# surinam grass = assay: Test B pre/postemergence surinam grass; format: in vivo, Brachiaria decumbens
# How it was run: as §1
# corn = assay: Test B pre/postemergence corn; format: in vivo, Zea mays
# How it was run: as §1
# duck salad = assay: Test B flood test duck salad; format: in vivo, Heteranthera limosa
# How it was run: (§2)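 Plants were grown to the 2-leaf stage before treatment with test chemical, then held in a greenhouse for twelve to sixteen days. Injury was visually rated against untreated controls on a 0–10 scale, where 0 is no effect and 10 is complete control.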
# bamyardgrass = assay: Test B flood test barnyardgrass; format: in vivo, Echinochloa crus-galli
# How it was run: as §2
# crabgrass = assay: Test B pre/postemergence crabgrass; format: in vivo, Digitaria sanguinalis
# How it was run: as §1
# purple nutsedge = assay: Test B pre/postemergence purple nutsedge; format: in vivo, Cyperus rotundus
# How it was run: as §1
# blackgrass = assay: Test B pre/postemergence blackgrass; format: in vivo, Alopecurus myosuroides
# How it was run: as §1
# rice = assay: Test B flood test rice; format: in vivo, Oryza sativa
# How it was run: as §2
# wild oat = assay: Test B pre/postemergence wild oat; format: in vivo, Avena fatua
# How it was run: as §1
# giant foxtail = assay: Test B pre/postemergence giant foxtail; format: in vivo, Setaria faberii
# How it was run: as §1
# sugar beet = assay: Test B pre/postemergence sugar beet; format: in vivo, Beta vulgaris
# How it was run: as §1
# rape = assay: Test B pre/postemergence rape; format: in vivo, Brassica napus
# How it was run: as §1
# smallflower flatsedge = assay: Test B flood test smallflower flatsedge; format: in vivo, Cyperus difformis
# How it was run: as §2
# [1] = Postemergence, Rate 125 g/ha, scale of 0 to 10 where 0 is no effect and 10 is complete control
# [2] = Postemergence, Rate 1000 g/ha, scale 0 to 10 (0 no effect, 10 complete control)
# [3] = Preemergence, Rate 125 g/ha, scale of 0 to 10 where 0 is no effect and 10 is complete control
# [4] = Preemergence, Rate 250 g/ha, scale 0 to 10 (0 no effect, 10 complete control)
# [5] = Preemergence, Rate 500 g/ha, scale of 0 to 10 where 0 is no effect and 10 is complete control
# [6] = Rate 500 g/ha, Postemergence, scale 0 to 10, 0 is no effect, 10 is complete control
# [7] = Rate 1000 g/ha, Preemergence, scale 0 to 10 (0 no effect, 10 complete control)
# [8] = Postemergence, Rate 250 g/ha, scale of 0 to 10, 0 is no effect, 10 is complete control
# [9] = Pre-emergence, Rate 1000 g/ha, scale 0 to 10 (0 no effect, 10 complete control)
# [10] = Rate 125 g/ha, under heading Pre-emergence, flood test species, visual evaluation after twelve to sixteen days
# [11] = Rate 250 g/ha, Pre-emergence (flood test species), scale 0 to 10, 0 is no effect, 10 is complete control
# [12] = Rate 500 g/ha, Pre-emergence section of Table B, 0 to 10 scale (0 no effect, 10 complete control)
smiles,measurement,setting,value
COP(=O)(CCn1c(=O)on(C(=O)N(c2ccc(F)cc2)C(C)C)c1=O)OC [Compound 662],Wheat plant response rating,wheat; [1],0
same,Wheat plant response rating,wheat; [2],0
same,Wheat plant response rating,wheat; [3],0
same,"Plant response rating, Wheat",wheat; [4],0
same,"Plant response rating, Wheat",wheat; [5],0
same,Wheat plant response rating,wheat; [6],0
same,"Plant response rating, Wheat",wheat; [7],5
same,Velvetleaf plant response rating,velvetleaf; [1],0
same,Velvetleaf plant response rating,velvetleaf; [2],0
same,Velvetleaf plant response rating,velvetleaf; [3],0
same,"Plant response rating, Velvetleaf",velvetleaf; [4],0
same,"Plant response rating, Velvetleaf",velvetleaf; [5],2
same,Velvetleaf plant response rating,velvetleaf; [6],0
same,"Plant response rating, Velvetleaf",velvetleaf; [7],2
same,"Plant response rating, B. signalgrass",surinam grass; [1],0
same,B. signalgrass plant response rating,surinam grass; [8],0
same,B. signalgrass plant response rating,surinam grass; [2],2
same,B. signalgrass plant response rating,surinam grass; [3],0
same,"Plant response rating, B. signalgrass",surinam grass; [4],3
same,"Plant response rating, B. signalgrass",surinam grass; [5],7
same,B. signalgrass plant response rating,surinam grass; [6],2
same,"Plant response rating, B. signalgrass",surinam grass; [7],9
same,Corn plant response rating,corn; [1],0
same,Corn plant response rating,corn; [8],0
same,Corn plant response rating,corn; [2],1
same,Corn plant response rating,corn; [3],0
same,"Plant response rating, Corn",corn; [4],0
same,"Plant response rating, Corn",corn; [5],3
same,Corn plant response rating,corn; [6],0
same,"Plant response rating, Corn",corn; [7],5
same,Ducksalad plant response rating,duck salad; [9],0
same,"Ducksalad plant response rating (0 to 10 scale, 0 is no effect, 10 is complete control)",duck salad; [10],0
same,Ducksalad plant response rating,duck salad; [11],0
same,Ducksalad plant response rating,duck salad; [12],0
same,Barnyardgrass plant response rating,bamyardgrass; [9],0
same,"Barnyardgrass plant response rating (0 to 10 scale, 0 is no effect, 10 is complete control)",bamyardgrass; [10],0
same,Barnyardgrass plant response rating,bamyardgrass; [11],0
same,Barnyardgrass plant response rating,bamyardgrass; [12],0
same,Crabgrass plant response rating,crabgrass; [1],0
same,Crabgrass plant response rating,crabgrass; [8],0
same,Crabgrass plant response rating,crabgrass; [2],8
same,Crabgrass plant response rating,crabgrass; [3],0
same,"Plant response rating, Crabgrass",crabgrass; [4],4
same,"Plant response rating, Crabgrass",crabgrass; [5],6
same,Crabgrass plant response rating,crabgrass; [6],2
same,"Plant response rating, Crabgrass",crabgrass; [7],9
same,Nutsedge plant response rating,purple nutsedge; [1],0
same,Nutsedge plant response rating,purple nutsedge; [3],0
same,"Plant response rating, Nutsedge",purple nutsedge; [4],4
same,"Plant response rating, Nutsedge",purple nutsedge; [5],7
same,Nutsedge plant response rating,purple nutsedge; [6],5
same,"Plant response rating, Nutsedge",purple nutsedge; [7],10
same,Blackgrass plant response rating,blackgrass; [1],0
same,Blackgrass plant response rating,blackgrass; [8],0
same,Blackgrass plant response rating,blackgrass; [2],6
same,Blackgrass plant response rating,blackgrass; [3],3
same,"Plant response rating, Blackgrass",blackgrass; [4],4
same,"Plant response rating, Blackgrass",blackgrass; [5],9
same,Blackgrass plant response rating,blackgrass; [6],3
same,"Plant response rating, Blackgrass",blackgrass; [7],9
same,Rice plant response rating,rice; [9],0
same,"Rice plant response rating (0 to 10 scale, 0 is no effect, 10 is complete control)",rice; [10],0
same,Rice plant response rating,rice; [11],0
same,Rice plant response rating,rice; [12],0
same,Wild oats plant response rating,wild oat; [1],1
same,Wild oats plant response rating,wild oat; [2],1
same,Wild oats plant response rating,wild oat; [3],0
same,"Plant response rating, Wild oats",wild oat; [4],0
same,"Plant response rating, Wild oats",wild oat; [5],9
same,Wild oats plant response rating,wild oat; [6],1
same,"Plant response rating, Wild oats",wild oat; [7],9
same,Giant foxtail plant response rating,giant foxtail; [1],0
same,Giant foxtail plant response rating,giant foxtail; [8],2
same,Giant foxtail plant response rating,giant foxtail; [2],8
same,Giant foxtail plant response rating,giant foxtail; [3],7
same,"Plant response rating, Giant foxtail",giant foxtail; [4],9
same,"Plant response rating, Giant foxtail",giant foxtail; [5],10
same,Giant foxtail plant response rating,giant foxtail; [6],5
same,"Plant response rating, Giant foxtail",giant foxtail; [7],10
same,Sugarbeets plant response rating,sugar beet; [1],0
same,Sugarbeets plant response rating,sugar beet; [2],0
same,Sugarbeets plant response rating,sugar beet; [3],0
same,"Plant response rating, Sugarbeets",sugar beet; [4],0
same,"Plant response rating, Sugarbeets",sugar beet; [5],0
same,Sugarbeets plant response rating,sugar beet; [6],0
same,"Plant response rating, Sugarbeets",sugar beet; [7],0
same,Rape plant response rating,rape; [1],0
same,Rape plant response rating,rape; [2],0
same,Rape plant response rating,rape; [3],0
same,"Plant response rating, Rape",rape; [4],0
same,"Plant response rating, Rape",rape; [5],0
same,Rape plant response rating,rape; [6],0
same,"Plant response rating, Rape",rape; [7],4
same,S. Flatsedge plant response rating,smallflower flatsedge; [9],0
same,"S. Flatsedge plant response rating (0 to 10 scale, 0 is no effect, 10 is complete control)",smallflower flatsedge; [10],0
same,S. Flatsedge plant response rating,smallflower flatsedge; [11],0
same,S. Flatsedge plant response rating,smallflower flatsedge; [12],0
